Tests used:
EAC cells = experiment: Flow cytometric analysis of cell cycle distribution of EAC cells from treated mice; type: in vivo; conditions: EAC bearing mice, 100 mg/kg for 5 days; for Apoptotic Cells (sub-G1) / Non-Apoptotic Cells G0/G1 / Non-Apoptotic Cells G2/M / Non-Apoptotic Cells S: percentage of cells
From the text: Flow cytometry is a technique that gives a clue to the mechanism by which cytotoxic agents affect the cell cycle by sorting and analyzing cells based on their content of DNA. Flow cytometry was used to further evaluate the effects of the indoloquinoline compounds modes-of-action to the cellular level, and we extended our studies on the cell cycle effects. To know whether cell cycle changes were aligned with the inhibition of cell growth, the cell cycle phase distribution was examined via flow cytometry. The cell cycle was analyzed in EAC-bearing mice treated with indoloquinoline analogs 6a, 6b, 6c and 6d (at a dose of 100 mg/kg for 5 constitutive days).
Flow cytometry was used to calculate the percentage of cells in each phase of the cell cycle in both positive control (exposed to 0.3% DMSO) and treated cells, results illustrated in (Table 10 and Figure 2). The influence of indoloquinoline derivatives on EAC cells indicated noticeable cell cycle specificity. In comparison with the positive control group, an appreciable change in the cell cycle occurred in giving the studied compounds. The sub-G1 population indicated apoptotic-associated chromatin degradation.
Fresh tumor tissue specimens from treated and untreated groups were transported to our laboratory in isotonic saline. The specimens were prepared following these steps: • The material was washed with isotone tris EDTA buffer. Then, the cell suspension was centrifuged at 1800 rpm for 10 min; the supernatant was then separated; • The cell is then fixed in ice-cold 96–100% ethanol (BDH) in approximately 1 mL for each sample; • Two milliliters of phosphate buffer solution (PBS) were used to wash the sample, which was recentrifuged at 1500 rpm for 5 min then the supernatant was thrown away; • Granules of the Tumor cells were put back into suspension using 200–500 µL of PBS. Into polystyrene tube, 100 µL of the suspension was transferred and then stained with 1.5 mL of propidium iodide. The tube is kept at 4 °C in a dark place for one hour; • The sample was run in the flow cytometer within 30 min after the addition of propidium iodide.
The flow cytometer was carried out with FACS caliber flow cytometer (Becton Dickinson, Sunnyvale, CA, USA) equipped with a compact air cocked low-power 15 m watt argon ion laser beam (488 nm). The average number of evaluated nuclei per specimen 20,000, and the number of nuclei scanned was 120 per second. DNA histogram derived from flow cytometry was obtained with a computer program for Dean and Jett’s mathematical analysis. Data analysis was conducted using DNA analysis program MPDFIT (Verity Software House, Inc. Box 247, Topsham, ME 04086 USA, version: 2.0, power Mac with 131,072 KB Registration No.: 42000960827-16193213 Date made: 16 September 1996). This software calculated the CV around the G0/G1 peak and the percentage of cells in each phase (G0/G1, S and G2/M) of the DNA cell cycle for each sample.

[1] = system: normal mice (liver homogenate); experiment: Lipid peroxidation and antioxidant enzymes in liver homogenate of normal mice; type: in vivo, Swiss female albino mice; conditions: 100 mg/kg SC for 5 days
From the text: Measuring antioxidant enzyme levels and lipid peroxidation was utilized to evaluate the pharmacological effect of indoloquinoline derivatives. The study group was divided into two subgroups, normal mice and tumor-bearing mice. Each subgroup is further subdivided into two groups, one group received indoloquinoline derivatives, and the other group was marked as a placebo group.
The eradicated liver was double washed first, with ice-cold normal saline then, with cold 0.15 mol/L Tris-HCl buffer (pH 7.4). The clean organ was dried and weighed, and used to prepare a 10% w/v homogenate in 0.15 mol/L Tris-HCl buffer. A portion of the prepared homogenate was centrifuged at 1500 rpm for 15 min at 4 °C [47] and used for estimating lipid peroxidation, SOD [48] and CAT [49] analysis was carried out using the supernatant.

Swiss albino mice = experiment: Acute / short-term toxicity study, single subcutaneous dose; type: in vivo; conditions: for No. of Death: 7 mice; for No. of Death / % Mortality: observed 24 h
Description: To confirm the safety of indoloquinoline compounds, acute and short-term toxicity studies were done. Forty-two Swiss albino mice were divided into six groups of seven mice each. The first five groups were subcutaneously injected in single graded doses. The first five groups were given a single dose of graded doses (400, 800, 1200, 1600, and 2000 mg/kg body weight) of indoloquinoline analog containing 11-substituted N-methyl piperazinyl side-chain 6d by the subcutaneous route, while the last group received 0.2 mL of (water: DMSO, 7:3) by the same route. The animals were then observed for 24 h for toxicity signs and death. The LD50 of 6d was calculated using the arithmetic methods of Karber as modified by Aliu and Nwude. The mortality rates and calculated LD50 are presented in (Table 3).

Molecule	increase of G0/G1 cell population relative to positive control (EAC cells)	increase of sub-G1 group as compared to control (EAC cells)	reduction of S-phase fraction relative to positive control (EAC cells)	Apoptotic Cells (sub-G1) (EAC cells)	Non-Apoptotic Cells G0/G1 (EAC cells)	Non-Apoptotic Cells G2/M (EAC cells)	Non-Apoptotic Cells S (EAC cells)	CAT [1]	Lipid Peroxidation [1]	SOD [1]	increase of G2/M fraction relative to positive control (EAC cells)	reduction of G0/G1 fraction relative to positive control (EAC cells)	other results
Cn1c2nc3ccccc3c-2c(Nc2ccc(Br)cc2F)c2ccccc21 [Compound 6a, N-(4-Bromo-2-fluorophenyl)-5-methyl-5H-indolo[2,3-b] Quinolin-11-amine]	17.4%	106%	about 35.3%	3.23 ± 0.01	90.27 ± 6.35	4.61 ± 0.6	5.12 ± 0.36	6.5 ± 0.39 KU/mg Tissue/s	252.1 ± 7.2 nmol MDA/g Tissue	139.4 ± 2.9 U/g Tissue			reduction of G2/M fraction relative to positive control (EAC cells): 69.7%
5-Methyl-N-(4-methylpiperazin-1-yl)-5H-indolo[2,3-b] Quinolin-11-amine [Compound 6d]		975%	56.6%	16.88 ± 0.6	41.30 ± 0.31	55.26 ± 0.06	3.44 ± 0.27	6.1 ± 0.20 KU/mg Tissue/s	248.69 ± 5.5 nmol MDA/g Tissue	137.9 ± 3.9 U/g Tissue	263.3%	46%	No. of Death (Swiss albino mice; 400 mg/kg SC single dose): 0; % Mortality (Swiss albino mice; 400 mg/kg SC single dose): 0%; No. of Death (Swiss albino mice; 800 mg/kg SC single dose): 2; % Mortality (Swiss albino mice; 800 mg/kg SC single dose): 28.5%; No. of Death (Swiss albino mice; 1200 mg/kg SC single dose): 4; % Mortality (Swiss albino mice; 1200 mg/kg SC single dose): 57.1%; No. of Death (Swiss albino mice; 1600 mg/kg SC single dose): 6; % Mortality (Swiss albino mice; 1600 mg/kg SC single dose): 85.7%; No. of Death (Swiss albino mice; 2000 mg/kg SC single dose): 7; % Mortality (Swiss albino mice; 2000 mg/kg SC single dose): 100%; LD50 (Swiss albino mice; subcutaneous, mice, arithmetic method of Karber): 1000 mg/kg
Cn1c2nc3ccccc3c-2c(NCCc2c[nH]c3ccccc23)c2ccccc21 [Compound 6b, N-(2-(1H-Indol-3-yl)ethyl)-5-methyl-5H-indolo[2,3-b] Quinolin-11-amine]	2%	1452%	about 70.3%	24.36 ± 0.01	78.44 ± 0.04	19.21 ± 0.09	2.35 ± 0.13	5.7 ± 0.31 KU/mg Tissue/s	247.96 ± 6.3 nmol MDA/g Tissue	140.2 ± 1.9 U/g Tissue	26.2%		
5(5-Methyl-5H-indolo[2,3-b] quinolin-11-ylamino) Pyrimidine-2,4(1H,3H)-dione [Compound 6c]		683%		12.30 ± 0.15	3.30 ± 0.15	56.20 ± 0.1	40.50 ± 2.41	6.2 ± 0.30 KU/mg Tissue/s	251.68 ± 11.9 nmol MDA/g Tissue	138.6 ± 6.0 U/g Tissue	~269.5%	about 95.7%	increase of cells in S-phase relative to positive control (EAC cells): ~411.3%
